In US9029367B2, “BACE inhibitors” (Eli Lilly and Company, priority 2013, dated 2015):
Structures can show the parent of a compound that is named as a salt. Where two headings read alike, the source gives them in different places. One block for each compound: values may come before it.

How the values were obtained:
human BACE1 (1-460):Fc = human BACE1 (1-460):Fc (Homo sapiens (Human), UniProt P56817); assay: BACE1 FRET Assay; assay type: biochemical; conditions: purified recombinant huBACE1:Fc, FRET substrate, pH 4.6; Mean ± SEM
Sequence of human BACE1 (1-460):Fc (P56817 22-460): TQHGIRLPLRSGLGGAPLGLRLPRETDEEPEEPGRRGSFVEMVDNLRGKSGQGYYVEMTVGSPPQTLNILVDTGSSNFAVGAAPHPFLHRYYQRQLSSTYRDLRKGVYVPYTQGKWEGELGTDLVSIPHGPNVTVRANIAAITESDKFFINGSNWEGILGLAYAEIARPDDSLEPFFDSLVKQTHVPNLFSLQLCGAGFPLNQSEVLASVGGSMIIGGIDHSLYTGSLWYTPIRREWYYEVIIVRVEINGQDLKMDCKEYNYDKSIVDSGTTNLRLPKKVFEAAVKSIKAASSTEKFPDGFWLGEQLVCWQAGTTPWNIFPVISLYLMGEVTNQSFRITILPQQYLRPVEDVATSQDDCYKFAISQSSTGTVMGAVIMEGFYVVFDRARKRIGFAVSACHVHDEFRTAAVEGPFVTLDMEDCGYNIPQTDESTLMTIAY
Experimental: For in vitro enzymatic and cellular assays, test compounds are prepared in DMSO to make up a 10 mM stock solution. The stock solution is serially diluted in DMSO to obtain a ten-point dilution curve with final compound concentrations ranging from 10 μM to 0.05 nM in a 96-well round-bottom plate before conducting the in vitro enzymatic and whole cell assays.
Human BACE1 (accession number: AF190725) is cloned from total brain cDNA by RT-PCR. The nucleotide sequences corresponding to amino acid sequences #1 to 460 are inserted into the cDNA encoding human IgG1 (Fc) polypeptide (Vassar et al., Science, 286, 735-742 (1999)). This fusion protein of BACE1 (1-460) and human Fc, named huBACE1:Fc, is constructed into the pJB02 vector. Human BACE1 (1-460):Fc (huBACE1:Fc) is transiently expressed in HEK293 cells. 250 μg cDNA of each construct is mixed with Fugene 6 and added to 1 liter HEK293 cells. Four days after the transfection, conditioned media are harvested for purification. huBACE1:Fc is purified by Protein A chromatography. The enzyme is stored at −80° C. in small aliquots. (See Yang, et. al., J. Neurochemistry, 91(6) 1249-59 (2004)
Serial dilutions of test compounds are prepared as described above. Compounds are further diluted 20× in KH2PO4 buffer. Ten μL of each dilution is added to each well on row A to H of a corresponding low protein binding black plate containing the reaction mixture (25 μL of 50 mM KH2PO4, pH 4.6, 1 mM TRITON® X-100, 1 mg/mL Bovine Serum Albumin, and 15 μM of FRET substrate) (See Yang, et. al., J. Neurochemistry, 91(6) 1249-59 (2004)). The content is mixed well on a plate shaker for 10 minutes. Fifteen μL of two hundred pM human BACE1 (1-460):Fc (See Vasser, et al., Science, 286, 735-741 (1999)) in the KH2PO4 buffer is added to the plate containing substrate and test compounds to initiate the reaction. The RFU of the mixture at time 0 is recorded at excitation wavelength 355 nm and emission wavelength 460 nm, after brief mixing on a plate shaker. The reaction plate is covered with aluminum foil and kept in a dark humidified oven at room temperature for 16 to 24 h. The RFU at the end of incubation is recorded with the same excitation and emission settings used at time 0. The difference of the RFU at time 0 and the end of incubation is representative of the activity of BACE1 under the compound treatment. RFU differences are plotted versus inhibitor concentration and a curve is fitted with a four-parameter logistic equation to obtain the IC50 values. (May, et al., Journal of Neuroscience, 31, 16507-16516 (2011)).

[1] = system: Abeta released by primary cortical neurons from PDAPP transgenic embryonic mice; assay: PDAPP Primary Neuronal Assay (Abeta 1-40 and 1-42 sandwich ELISAs); assay type: cell-based; conditions: Mus musculus, Primary cortical neuron, 24 h incubation
Experimental: For in vitro enzymatic and cellular assays, test compounds are prepared in DMSO to make up a 10 mM stock solution. […] A confirmatory whole cell assay is also run in primary neuronal cultures generated from PDAPP transgenic embryonic mice (May, et al., Journal of Neuroscience, 31, 16507-16516 (2011)). Primary cortical neurons are prepared from Embryonic Day 16 PDAPP embryos and cultured in 96 well plates (15×10^4 cells/well in DMEM/F12 (1:1) plus 10% FBS). After 2 days in vitro, culture media is replaced with serum free DMEM/F12 (1:1) containing B27 supplement and 2 μM (final) of Ara-C (Sigma, C1768). At day 5 in vitro, neurons are incubated at 37° C. for 24 h in the presence/absence of inhibitors (diluted in DMSO) at the desired concentration. […] Natl. Acad. Sci. USA 94, 1550-1555 (1997)). The concentration of Abeta released in the conditioned media following the compound treatment corresponds to the activity of BACE1 under such conditions.

[2] = system: Abeta 1-x peptide levels in brain of young female PDAPP mice; assay: In vivo Inhibition of Beta-Secretase (brain Abeta 1-x in PDAPP mice); parameters: species or system mouse; conditions: three hours after dosing, compared to vehicle-treated mice
Text: Several animal models, including mouse, guinea pig, dog, and monkey, may be used to screen for inhibition of beta-secretase activity in vivo following compound treatment Animals used in this invention can be wild type, transgenic, or gene knockout animals. […] One to twenty-four hours following the administration of compound, animals are sacrificed, and brains are removed for analysis of Abeta 1-x. “Abeta 1-x” as used herein refers to the sum of Abeta species that begin with residue 1 and end with a C-terminus greater than residue 28. This detects the majority of Abeta species and is often called “total Abeta”. Total Abeta peptides (Abeta 1-x) levels are measured by a sandwich ELISA, using monoclonal 266 as a capture antibody and biotinylated 3D6 as reporting antibody. (See May, et al., Journal of Neuroscience, 31, 16507-16516 (2011)).
For acute studies, compound or appropriate vehicle is administered and animals are sacrificed at about 3 hours after dosing. Brain tissue, is obtained from selected animals and analyzed for the presence of Abeta 1-x. After chronic dosing brain tissues of older APP transgenic animals may also be analyzed for the amount of beta-amyloid plaques following compound treatment.

[3] = Abeta 1-40, Mean ± SEM, read-out: PDAPP Neuron A-beta (1-40) ELISA IC50
[4] = Abeta 1-42, Mean ± SEM, read-out: PDAPP Neuron A-beta (1-42) ELISA IC50

SMILES: Cl.NC1=N[C@@]2(c3cc(NC(=O)c4ccc(F)cn4)ccc3F)COC[C@@]2(F)CS1 [Example 1, N-[3-[(4aR,7aS)-2-Amino-4a-fluoro-5,7-dihydro-4H-furo[3,4-d][1,3]thiazin-7a-yl]-4-fluoro-phenyl]-5-fluoro-pyridine-2-carboxamide hydrochloride]
- IC50 (human BACE1 (1-460):Fc): 0.0156 µM
- IC50 [1, 3]: 0.0833 µM
- IC50 [1, 4]: 0.0768 µM
- Abeta 1-x peptide levels reduced in brain cortex ([2]; 30 mg/kg oral dose): approximately 48%
- Abeta 1-x peptide levels reduced in brain hippocampus ([2]; 30 mg/kg oral dose): approximately 37%

SMILES: COc1cnc(C(=O)Nc2ccc(F)c([C@]34COC[C@@]3(F)CSC(N)=N4)c2)cn1.Cl [Example 2, N-[3-[(4aR,7aS)-2-Amino-4a-fluoro-5,7-dihydro-4H-furo[3,4-d][1,3]thiazin-7a-yl]-4-fluoro-phenyl]-5-methoxy-pyrazine-2-carboxamide hydrochloride]
- IC50 [1, 3]: 0.0295 µM
- IC50 [1, 4]: 0.0219 µM
- Abeta 1-x peptide levels reduced in brain cortex ([2]; 10 mg/kg oral dose): approximately 45%
- Abeta 1-x peptide levels reduced in brain hippocampus ([2]; 10 mg/kg oral dose): approximately 40%
- Abeta 1-x peptide levels reduced in brain cortex ([2]; 30 mg/kg oral dose): approximately 54%
- Abeta 1-x peptide levels reduced in brain hippocampus ([2]; 30 mg/kg oral dose): approximately 52%

SMILES: NC1=N[C@@]2(c3cc(NC(=O)c4cnc(OCC5(F)CC5)cn4)ccc3F)COC[C@@]2(F)CO1 [Example 57, N-[3-[(4aR,7aS)-2-Amino-4a-fluoro-5,7-dihydro-4H-furo[3,4-d][1,3]oxazin-7a-yl]-4-fluoro-phenyl]-5-[(1-fluorocyclopropyl)methoxy]pyrazine-2-carboxamide hydrochloride]
- IC50 (human BACE1 (1-460):Fc): 0.0257 µM
- IC50 [1, 3]: 0.186 µM
- IC50 [1, 4]: 0.182 µM

Further lines, with some results ahead:

- IC50 (human BACE1 (1-460):Fc): 0.00666 µM
SMILES: Cl.N#Cc1ccc(C(=O)Nc2ccc(F)c([C@]34COC[C@@]3(F)CSC(N)=N4)c2)nc1 [Example 3, N-[3-[(4aR,7aS)-2-Amino-4a-fluoro-5,7-dihydro-4H-furo[3,4-d][1,3]thiazin-7a-yl]-4-fluoro-phenyl]-5-cyano-pyridine-2-carboxamide hydrochloride]
- IC50 [1, 3]: 0.0202 µM
- IC50 [1, 4]: 0.0163 µM
- Abeta 1-x peptide levels reduced in brain cortex ([2]; 10 mg/kg oral dose): approximately 46%
- Abeta 1-x peptide levels reduced in brain hippocampus ([2]; 10 mg/kg oral dose): approximately 34%

- IC50 (human BACE1 (1-460):Fc): 0.045 µM
SMILES: Cl.N#Cc1ccc(C(=O)Nc2ccc(F)c([C@]34COC[C@@]3(F)COC(N)=N4)c2)nc1 [Example 34, N-[3-[(4aR,7aS)-2-Amino-4a-fluoro-5,7-dihydro-4H-furo[3,4-d][1,3]oxazin-7a-yl]-4-fluoro-phenyl]-5-cyano-pyridine-2-carboxamide hydrochloride]
- IC50 [1, 3]: 0.0499 µM
- IC50 [1, 4]: 0.0365 µM
- Abeta 1-x peptide levels reduced in brain hippocampus ([2]; 10 mg/kg oral dose): approximately 26%
